Experimental data from patent publication US6060471A, “Reduction of hair growth” (priority 1998, dated 2000).
Read-outs that look alike come from different tables or passages of the source.

Tests used:
[1] = system: 18 kD human hair follicle protein (eIF-5A); assay: Incorporation of 3H-spermidine into 18 kD human hair follicle proteins; type: cell-based; conditions: inhibitor 0.2 mM, follicles cultured 48 hours, 3H-spermidine 6 hours; for % Reduction of 3H-spermidine incorporation: 2880 min, 200 µM
Procedure: Human hair follicles derived from face lift procedures were isolated and placed in Williams E medium containing antibiotics, glutamine, insulin and hydrocortisone. Follicles were cultured for 48 hours at 37° C. in the presence of 1,6-diaminohexane (0.2 mM), 1,8-diaminooctane (0.2 mM), ciclopiroxolamine (0.2 mM) or hydralazine (0.2 mM). Control follicles were maintained in Williams E without any inhibitors present. At the end of the 48 hour period, ^3 H-spermidine […] was added to the culture for 6 hours. The hair follicles were washed in phosphate buffered saline to remove nonincorporated ^3 H-spermidine, and the follicles were homogenized in a buffer, pH 7.4, containing Tris (50 mM) and sucrose (0.5 mM). Hair follicle protein was applied to a 10% polyacrylamide gel. After the proteins were separated on the gel using a constant voltage (125 V), they were stained with coomassie blue. […] The protein bands were cutout of the gel and solubilized with BTS-450 (Beckman). The liquid scintillation fluid Econoscint (12 mL) was added to each sample, which was analyzed for ^3 H-spermidine incorporation by scintillation spectrometry.

[2] = system: flank organs of Golden Syrian hamsters (hair growth); assay: Golden Syrian hamster assay (flank organ hair mass); type: in vivo; conditions: for inhibition in vivo at 10 %: read-out: % Inhibition (hair mass)
Source text: Male intact Golden Syrian hamsters are considered acceptable models for human beard hair growth in that they display oval shaped flank organs, one on each side, each about 8 mm. in major diameter, which grow thick black and coarse hair similar to human beard hair. These organs produce hair in response to androgens in the hamster. To evaluate the effectiveness of a composition including an inhibitor of the hypusine biosynthetic pathway, the flank organs of each of a group of hamsters are depilated by applying a thioglycolate based chemical depilatory (Surgex) and/or shaved. To one organ of each animal 10 μl. of vehicle alone once a day is applied, while to the other organ of each animal an equal amount of vehicle containing an inhibitor of the hypusine biosynthetic pathway is applied. After thirteen applications (one application per day for five days a week), the flank organs are shaved and the amount of recovered hair (hair mass) from each is weighed. Percent-reduction of hair growth is calculated by subtracting the hair mass (mg) value of the test compound treated side from the hair mass value of the vehicle treated side; the delta value obtained is then divided by the hair mass value of the vehicle treated side, and the resultant number is multiplied by 100.
The above-described assay will be referred to herein as the "Golden Syrian hamster" assay.
This vehicle also was used in the testing described below.

[3] = Mesocricetus auratus, Table I, dose 10%, topical, 13 applications, pH per compound 6.0-8.5
[4] = Table I, dose 10%, topical, 13 applications, pH per compound 6.0-8.5

SMILES | Incorporation of 3H-spermidine [1] [pmol/mg protein] | % Reduction of 3H-spermidine incorporation [1] [%] | inhibition in vivo at 10 % [2, 3] [%] | Hair Mass, Treated [2, 4] | further results
NCCCCCCCCN [1,8-Diaminooctane, 1,8-diaminooctane] | < 1.0 | 100 | 74 ± 6 | 0.70 ± .12 mq | % Reduction of 3H-spermidine incorporation ([1]; listed as 1,8-diaminooctane): 47-100%; inhibition in vivo at 2 % ([2]; Mesocricetus auratus, topical, Table II, dose 2%, pH 9.0): 24 ± 8%; inhibition in vivo at 5 % ([2]; Mesocricetus auratus, topical, Table II, dose 5%, pH 9.0): 48 ± 10%; inhibition in vivo at 10 % ([2]; Mesocricetus auratus, topical, Table II, dose 10%, pH 8.0): 74 ± 6%; Hair Mass, Treated ([2]; Table II, dose 2%, pH 9.0): 1.88 ± .25 mg; Hair Mass, Treated ([2]; Table II, dose 5%, pH 9.0): 1.86 ± .37 mg; Hair Mass, Treated ([2]; Table II, dose 10%, pH 8.0): 0.70 ± .12 mg
NCCCCCCCCCN [1,9-Diaminononane, 1,9-diaminononane] |  |  | 50 ± 13 | 1.27 ± .56 mq | 
NCCCCCCCN [1,7-Diaminoheptane, 1,7-diaminoheptane] |  |  | 67 ± 4 | 0.80 ± .11 mq | 
NCCCCCCN [1,6-Diaminohexane, 1,6-diaminohexane] | < 1.0 | 100 |  | 1.50 ± .20 mq | % Reduction of 3H-spermidine incorporation ([1]; listed as 1,6-diaminohexane): 47-100%; inhibition in vivo at 10 % ([2]; Mesocricetus auratus, topical): 51 ± 5%
Cc1cc(C2CCCCC2)n(O)c(=O)c1 [Ciclopiroxolamine, ciclopiroxolamine] | < 1.0 | 100 |  |  | % Reduction of 3H-spermidine incorporation ([1]; listed as ciclopiroxolamine): 47-100%; inhibition in vivo at 10 % ([2]; Mesocricetus auratus, topical, Table III, dose 10%, pH 9.0): 44%; % Inhibition (hair mass) ([2]; Table III, dose 10%, pH 9.0): 44 ± 17%; Hair Mass, Treated ([2]; Table III, dose 10%, pH 9.0): 0.92 ± .21 mg
NCCCCN(CCCN)Cc1ccccc1 [N^4 -Benzylspermidine, N^4 -benzyl-spermidine] |  |  | 62 ± 4 | 1.05 ± .12 mq | 
NNc1nncc2ccccc12 [Hydralazine, hydralazine] | 10.3 | 47 |  |  | inhibition at 200 µM ([1]; Homo sapiens, 48 h, read-out: % Reduction of 3H-spermidine incorporation): 47 to 100%; inhibition in vivo at 5 % ([2]; Mesocricetus auratus, topical, Table III, dose 5%, pH 5.0): 33%; % Inhibition (hair mass) ([2]; Table III, dose 5%, pH 5.0): 33 ± 7%; Hair Mass, Treated ([2]; Table III, dose 5%, pH 5.0): 1.38 ± .14 mg
NCCCCCN [Cadaverine, cadaverine] |  |  | 43 ± 4 | 1.91 ± .15 mq | 
